Measurements taken from PMC8286840, “Identifying SARS-CoV-2 antiviral compounds by screening for small molecule inhibitors of Nsp3 papain-like protease” (Biochemical Journal, 2021).
Where a name gives a salt, the structure may show the parent alone. Read-outs that look alike come from different tables or passages of the source.

Experiments:
[1] = molecular target: T1, SARS-CoV-2 PLpro (nsp3 1564–1878) (Severe acute respiratory syndrome coronavirus 2, UniProt P0DTD1); test: biochemical; parameters: FRET-quenched peptide (Pro3) cleavage by PLpro, 10 min pre-incubation, slope over 20 min, normalised to no-compound control; conditions: low concentration screen, read-out: % of control remaining
[2] = molecular target: T1, SARS-CoV-2 PLpro (nsp3 1564–1878); test: biochemical; parameters: FRET-quenched peptide (Pro3) cleavage by PLpro, 10 min pre-incubation, slope over 20 min, normalised to no-compound control; conditions: high concentration screen, read-out: % of control remaining

CCOc1cc(N)c(Cl)cc1C(=O)NCC1CN(Cc2ccc(F)cc2)CCO1 (stereo not drawn) [Mosapride (citrate)]
remaining activity at 1.25 µM ([1]; Well no.=6657): 104% | remaining activity at 3.75 µM ([2]; Well no.=6657): 109%

O=C(O)c1ccc(-c2c[nH]c3ncc(-c4ccccc4)cc23)cc1C1CCCC1 [2-cyclopentyl-4-(5-phenyl-1H-pyrrolo[2,3-b]pyridin-3-yl)benzoic acid]
remaining activity at 1.25 µM ([1]; Well no.=5864): 93% | remaining activity at 3.75 µM ([2]; Well no.=5864): 94.4%

C[C@@H]1[C@H](O)[C@@H](C)/C=C/C=C/CC/C=C/C=C/C=C/C=C/[C@H](O[C@@H]2O[C@H](C)[C@@H](O)[C@H](N)[C@@H]2O)C[C@@H]2O[C@](O)(C[C@@H](O)[C@H](O)CC[C@@H](O)C[C@@H](O)C[C@@H](O)CC(=O)O[C@H]1C)C[C@H](O)[C@H]2C(=O)O [Nystatin]
remaining activity at 1.25 µM ([1]; Well no.=2045): 97.9% | remaining activity at 3.75 µM ([2]; Well no.=2045): 100%

COC(=O)c1ccc2c(c1)nc(NC(=O)c1ccccc1)n2CCCc1ccccc1 [BRD4770]
remaining activity at 1.25 µM ([1]; Well no.=5781): 97% | remaining activity at 3.75 µM ([2]; Well no.=5781): 96.3%

COc1cc2nc(N3CCN(C(=O)C4COc5ccccc5O4)CC3)nc(N)c2cc1OC (stereo not drawn) [Doxazosin mesylate]
remaining activity at 1.25 µM ([1]; Well no.=730): 98.2% | remaining activity at 3.75 µM ([2]; Well no.=730): 93.7%

CC(C)C[C@H](NC(=O)CNC(=O)c1cc(Cl)ccc1Cl)B(O)O [MLN2238]
remaining activity at 1.25 µM ([1]; Well no.=4808): 96.1% | remaining activity at 3.75 µM ([2]; Well no.=4808): 97.1%

CN(C)c1ccc(/C=C2\C(=O)Nc3ccccc32)cc1 [SU 4312]
remaining activity at 1.25 µM ([1]; Well no.=1179): 97.9% | remaining activity at 3.75 µM ([2]; Well no.=1179): 101%

C[N+](C)(C)CCOC(N)=O [Carbamoylcholine (chloride)]
remaining activity at 1.25 µM ([1]; Well no.=6757): 99.9% | remaining activity at 3.75 µM ([2]; Well no.=6757): 97.3%

Cn1c(=O)c2c(nc(/C=C/c3cccc(Cl)c3)n2C)n(C)c1=O [8-(3-Chlorostyryl)caffeine]
remaining activity at 1.25 µM ([1]; Well no.=727): 100% | remaining activity at 3.75 µM ([2]; Well no.=727): 97.2%

C[C@@H]1C[C@H]2CC[C@H](O2)[C@H](C)C(=O)O[C@@H](C)C[C@@H]2CC[C@@H](O2)[C@@H](C)C(=O)O[C@H](C)C[C@H]2CC[C@H](O2)[C@H](C)C(=O)O[C@@H](C)C[C@@H]2CC[C@@H](O2)[C@@H](C)C(=O)O1 [Nonactin]
remaining activity at 1.25 µM ([1]; Well no.=3330): 95.5% | remaining activity at 3.75 µM ([2]; Well no.=3330): 94.1%

CN[C@H]1C[C@@H](N)[C@H](O)[C@@H](O[C@@H]2O[C@H](CO)[C@H](O)[C@@H]3OC4(O[C@H]23)O[C@H]([C@@H](N)CO)[C@H](O)[C@H](O)[C@H]4O)[C@@H]1O (stereo partly drawn) [Hygromycin B]
remaining activity at 1.25 µM ([1]; Well no.=5221): 99.8% | remaining activity at 3.75 µM ([2]; Well no.=5221): 102%

CCc1ccc(NC(=O)Nc2c[nH]c3ccccc23)cc1 [H-151]
remaining activity at 1.25 µM ([1]; Well no.=8555): 102% | remaining activity at 3.75 µM ([2]; Well no.=8555): 103%

COc1ccc2c3n(c(=NC(=O)c4cccnc4)nc2c1OC)CCN3 [PIK-90]
remaining activity at 1.25 µM ([1]; Well no.=2747): 91.2% | remaining activity at 3.75 µM ([2]; Well no.=2747): 95%

CN(C)C(=O)Oc1cccc([N+](C)(C)C)c1 [Neostigmine]
remaining activity at 1.25 µM ([1]; Well no.=1558): 106% | remaining activity at 3.75 µM ([2]; Well no.=1558): 103%

CNC(=O)c1ccc(-c2cnc3ncc(Cc4ccc5ncccc5c4)n3n2)cc1F [INCB28060]
remaining activity at 1.25 µM ([1]; Well no.=5119): 102% | remaining activity at 3.75 µM ([2]; Well no.=5119): 103%

Nc1ncnc2c1ncn2[C@@H]1O[C@H](COP(=O)(O)CP(=O)(O)OP(=O)(O)O)[C@@H](O)[C@H]1O [alpha,beta-Methylene adenosine 5'-triphosphate dilithium]
remaining activity at 1.25 µM ([1]; Well no.=932): 101% | remaining activity at 3.75 µM ([2]; Well no.=932): 98.2%

CC[N+](CC)(CC)CCOc1cccc(OCC[N+](CC)(CC)CC)c1OCC[N+](CC)(CC)CC [Gallamine triethiodide]
remaining activity at 1.25 µM ([1]; Well no.=717): 91.1% | remaining activity at 1.25 µM ([1]; Well no.=6753): 105% | remaining activity at 3.75 µM ([2]; Well no.=717): 87.8% | remaining activity at 3.75 µM ([2]; Well no.=6753): 103%

CCCCCCCCCCCCCC(=O)O[C@@H]1[C@@H](C)[C@@]2(O)[C@@H](C=C(CO)C[C@]3(O)C(=O)C(C)=C[C@@H]23)[C@@H]2C(C)(C)[C@]12OC(C)=O [Phorbol 12-myristate 13-acetate]
remaining activity at 1.25 µM ([1]; Well no.=1493): 101% | remaining activity at 1.25 µM ([1]; Well no.=3078): 102% | remaining activity at 3.75 µM ([2]; Well no.=1493): 97.5% | remaining activity at 3.75 µM ([2]; Well no.=3078): 105%

Nc1c(Br)cc(Br)cc1CN[C@H]1CC[C@H](O)CC1 [Ambroxol]
remaining activity at 1.25 µM ([1]; Well no.=1614): 102% | remaining activity at 1.25 µM ([1]; Well no.=3892): 98.1% | remaining activity at 3.75 µM ([2]; Well no.=1614): 101% | remaining activity at 3.75 µM ([2]; Well no.=3892): 97.9%

COc1cccc(Nc2c(C(N)=O)cnc3c(C)cc(S(=O)(=O)c4cccc(C(=O)N(C)C)c4)cc23)c1 [GSK256066]
remaining activity at 1.25 µM ([1]; Well no.=5300): 95.5% | remaining activity at 3.75 µM ([2]; Well no.=5300): 98.4%

CC/C=C\C[C@@H](/C=C/C=C\C/C=C\C/C=C\CCCC(=O)O)OO [15(S)-HPEPE]
remaining activity at 1.25 µM ([1]; Well no.=4335): 103% | remaining activity at 3.75 µM ([2]; Well no.=4335): 102%

C[C@@H](NCCCc1cccc(C(F)(F)F)c1)c1cccc2ccccc12 [Cinacalcet]
remaining activity at 1.25 µM ([1]; Well no.=7389): 96.2% | remaining activity at 3.75 µM ([2]; Well no.=7389): 82.2%

CO[C@]12C[C@@H](COC(=O)c3cncc(Br)c3)CN(C)[C@@H]1Cc1cn(C)c3cccc2c13 [Nicergoline]
remaining activity at 1.25 µM ([1]; Well no.=1731): 99.4% | remaining activity at 1.25 µM ([1]; Well no.=6958): 102% | remaining activity at 3.75 µM ([2]; Well no.=1731): 102% | remaining activity at 3.75 µM ([2]; Well no.=6958): 109%

CCCCC/C=C\C[C@@H]1O[C@H]1C(O)/C=C\C/C=C\CCCC(=O)O (stereo partly drawn) [Hepoxilin B3]
remaining activity at 1.25 µM ([1]; Well no.=4341): 97.9% | remaining activity at 3.75 µM ([2]; Well no.=4341): 96.6%

CC(C)(C)C#Cc1cc(N(C(=O)[C@H]2CC[C@H](C)CC2)[C@H]2CC[C@H](O)CC2)c(C(=O)O)s1 [VX-222]
remaining activity at 1.25 µM ([1]; Well no.=4903): 97.1% | remaining activity at 3.75 µM ([2]; Well no.=4903): 96.2%

C[C@H]1[C@H](OC(=O)CCC(=O)O)O[C@@H]2O[C@@]3(C)CC[C@H]4[C@H](C)CC[C@@H]1[C@@]24OO3 [Artesunate]
remaining activity at 1.25 µM ([1]; Well no.=2200): 100% | remaining activity at 1.25 µM ([1]; Well no.=3083): 96% | remaining activity at 3.75 µM ([2]; Well no.=2200): 98.2% | remaining activity at 3.75 µM ([2]; Well no.=3083): 102%

C=C[C@H]1CN2CC[C@H]1C[C@H]2[C@H](O)c1ccnc2ccccc12 [(-)-Cinchonidine]
remaining activity at 1.25 µM ([1]; Well no.=3196): 101% | remaining activity at 3.75 µM ([2]; Well no.=3196): 102%

O=C(O)CC(O)(CC(=O)O)C(=O)O [Citric acid]
remaining activity at 1.25 µM ([1]; Well no.=6195): 104% | remaining activity at 1.25 µM ([1]; Well no.=6298): 103% | remaining activity at 3.75 µM ([2]; Well no.=6195): 103% | remaining activity at 3.75 µM ([2]; Well no.=6298): 104%

C/C1=C\CC(C)(C)/C=C/C(=O)/C(C)=C/CC1 [Zerumbone]
remaining activity at 1.25 µM ([1]; Well no.=3549): 96.6% | remaining activity at 3.75 µM ([2]; Well no.=3549): 98.6%

CC(C)C[C@@H](C(=O)O)N(C)C(=O)OCC1c2ccccc2-c2ccccc21 [Fmoc-N-Me-Leu-OH]
remaining activity at 1.25 µM ([1]; Well no.=7972): 92.7% | remaining activity at 3.75 µM ([2]; Well no.=7972): 94.1%
